For orientation: IC50 means the concentration that gives 50% inhibition.

Data set [1] deals with Candida albicans. Put plainly: Mouse model of systemic candidiasis, survival. The data set is classed as in vivo, CD1 mice. The settings on record: for Average survival (days) ± S.D.: observed until day 30. The protocol: Experiment C: Study of the Efficacy of Compounds of the Formula (I) in a Mouse Model of Systemic Candidiasis.
The C. albicans isolate was cultured for 24 h in yeast dextrose broth. The blastospores were recovered by centrifugation, repeatedly washed in sterile saline solution and the inoculum adjusted to the desired concentration. The inoculum was verified by a subsequent count of CFU/ml on Sabouraud plates.
The mice were then inoculated intravenously (0.2 ml/mouse).
24 hours after inoculation with C. albicans, the animals were randomised into the following treatment groups (10 mice/group): • 1. […] Compound under investigation: 50 mg/kg/day (two 25 mg/kg treatments twice daily at 12 hour intervals) • 3. Compound under investigation; 10 mg/kg/day (two 5 mg/kg treatments twice daily at 12 hour intervals) • 4. Control (placebo)
The compounds were administered orally (suspension in PEG 200, 0.2 ml/mouse) for 10 consecutive days and the animals were observed until day 30. The survival curves between the various treatment groups and between these groups and the control group were evaluated using the Kaplan-Meier method.

The subject of a further data set is Candida glabrata. Description: Antifungal activity, liquid phase microdilution (NCCLS M27/M38-P). The format is cell-based. The settings on record: Candida glabrata strain 02-0902. The procedure:
(§1) Experiment A: Antifungal Activity of Compounds of the Formula (I)
(§2) The antifungal activity of the compounds of the formula (I) was determined using various strains of yeast and filamentous fungi. […] Table no.

In data set [2] the test system is Candida albicans. The data set is described as above. The data set is classed as cell-based. The protocol: as §1, §2
Another data set has as its system Candida parapsilosis. The description is as above. The format is cell-based. The settings on record: Candida parapsilosis strain ATCC22019. The protocol: as §1, §2
The target in a further data set is T1, CYP2D6 (Homo sapiens, UniProt P10635).
T1 construct: purchased Gentest
Put plainly: Inhibition of human cytochromes, fluorescent substrates. The data set is classed as in vitro ADME. The settings on record: isoenzyme (Gentest), 37° C. The procedure: (§3) Experiment B: Inhibition of Human Cytochromes by Compounds of the Formula (I)
(§4) Inhibition of the enzymatic activity of the most significant isoforms of human cytochromes by the compounds of the formula (I) was measured by using specific substrates which become fluorescent as a result of the metabolic action of a particular cytochrome isoform. The individual isoenzymes (Gentest) and the respective substrates were incubated in 96 well plates in buffer containing […] at 37° C. in the presence or absence of the compound under investigation. […] The degree of inhibition of each individual isoenzyme by known inhibitors was also assessed as a positive control.

A further data set concerns the target T2, CYP2C19 (Homo sapiens, UniProt P33261).
T2 construct: purchased Gentest
The description is as above. The data set is classed as in vitro ADME. The settings on record: isoenzyme (Gentest), 37° C. The protocol: as §3, §4

The next data set concerns the target T3, CYP2C9 (Homo sapiens, UniProt P11712).
T3 construct: purchased Gentest
Described as above. The data set is classed as in vitro ADME. The settings on record: isoenzyme (Gentest), 37° C. The procedure:
as §3, §4

The target of the next data set is T4, CYP1A2 (Homo sapiens, UniProt P05177).
T4 construct: purchased Gentest
T4 sequence (P05177 1-516): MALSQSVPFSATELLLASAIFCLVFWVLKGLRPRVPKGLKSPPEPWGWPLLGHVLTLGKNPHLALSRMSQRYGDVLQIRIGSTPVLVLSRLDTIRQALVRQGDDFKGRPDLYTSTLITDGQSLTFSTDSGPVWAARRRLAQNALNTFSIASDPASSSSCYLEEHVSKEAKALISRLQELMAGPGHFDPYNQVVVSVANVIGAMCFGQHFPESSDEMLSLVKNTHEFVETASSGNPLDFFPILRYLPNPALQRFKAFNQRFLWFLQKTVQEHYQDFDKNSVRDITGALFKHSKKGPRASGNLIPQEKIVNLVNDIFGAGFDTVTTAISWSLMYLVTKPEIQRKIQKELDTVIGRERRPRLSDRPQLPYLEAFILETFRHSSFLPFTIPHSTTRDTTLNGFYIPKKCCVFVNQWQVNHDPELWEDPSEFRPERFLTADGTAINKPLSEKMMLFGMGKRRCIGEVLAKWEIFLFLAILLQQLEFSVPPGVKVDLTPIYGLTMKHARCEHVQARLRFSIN
The data set is described as above. The format is in vitro ADME. The settings on record: isoenzyme (Gentest), 37° C. The procedure: as §3, §4

For another data set, the system named is Aspergillus fumigatus. Put plainly: Antifungal activity, liquid phase microdilution (NCCLS M27/M38-P). The format is cell-based. Details: IC50 (minimum concentration to bring about 50% inhibition): unit not given here. The protocol: as §1, §2
In general terms: Dilution methods test growth across graded concentrations, often in twofold steps.

Another data set has as its target T5, CYP3A4 (Homo sapiens, UniProt P08684).
T5 construct: purchased Gentest
Description: Inhibition of human cytochromes, fluorescent substrates. The data set is classed as in vitro ADME. The settings on record: isoenzyme (Gentest), 37° C. The protocol:
as §3
The individual isoenzymes (Gentest) and the respective substrates were incubated in 96 well plates in buffer containing […] at 37° C. in the presence or absence of the compound under investigation. […] The degree of inhibition of each individual isoenzyme by known inhibitors was also assessed as a positive control.

The mark [3] stands for this setting: 10 mg/kg/day orally (5 mg/kg twice daily) for 10 days.
Where [4] appears, read: 50 mg/kg/day orally (25 mg/kg twice daily) for 10 days.

T3 sequence (P11712 whole entry): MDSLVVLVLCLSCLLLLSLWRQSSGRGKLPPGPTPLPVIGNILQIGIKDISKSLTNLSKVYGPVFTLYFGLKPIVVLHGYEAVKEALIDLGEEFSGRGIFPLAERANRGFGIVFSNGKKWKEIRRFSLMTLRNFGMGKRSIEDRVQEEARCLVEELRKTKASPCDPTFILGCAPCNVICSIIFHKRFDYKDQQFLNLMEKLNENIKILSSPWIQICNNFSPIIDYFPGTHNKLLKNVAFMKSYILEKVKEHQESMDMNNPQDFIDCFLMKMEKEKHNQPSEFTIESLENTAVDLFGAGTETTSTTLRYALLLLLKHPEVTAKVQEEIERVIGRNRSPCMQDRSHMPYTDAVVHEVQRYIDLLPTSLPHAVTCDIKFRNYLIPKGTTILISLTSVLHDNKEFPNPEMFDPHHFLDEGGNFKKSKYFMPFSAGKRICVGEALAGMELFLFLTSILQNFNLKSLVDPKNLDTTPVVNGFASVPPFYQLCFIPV
T1 sequence (P10635 whole entry): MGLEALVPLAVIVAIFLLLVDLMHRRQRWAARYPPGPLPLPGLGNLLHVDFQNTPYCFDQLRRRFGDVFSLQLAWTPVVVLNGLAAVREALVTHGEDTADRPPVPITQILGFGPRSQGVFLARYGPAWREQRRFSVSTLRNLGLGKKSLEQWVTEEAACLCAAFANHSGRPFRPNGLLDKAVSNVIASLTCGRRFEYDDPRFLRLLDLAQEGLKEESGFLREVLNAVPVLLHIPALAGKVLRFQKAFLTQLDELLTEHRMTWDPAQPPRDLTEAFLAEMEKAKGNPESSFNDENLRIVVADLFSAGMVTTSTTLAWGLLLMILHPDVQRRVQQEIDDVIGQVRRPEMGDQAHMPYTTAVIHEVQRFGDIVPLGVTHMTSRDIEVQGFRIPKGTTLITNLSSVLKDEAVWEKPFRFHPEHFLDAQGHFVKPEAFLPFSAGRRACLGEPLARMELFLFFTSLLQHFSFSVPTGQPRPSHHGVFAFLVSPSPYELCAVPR
T5 sequence (P08684 whole entry): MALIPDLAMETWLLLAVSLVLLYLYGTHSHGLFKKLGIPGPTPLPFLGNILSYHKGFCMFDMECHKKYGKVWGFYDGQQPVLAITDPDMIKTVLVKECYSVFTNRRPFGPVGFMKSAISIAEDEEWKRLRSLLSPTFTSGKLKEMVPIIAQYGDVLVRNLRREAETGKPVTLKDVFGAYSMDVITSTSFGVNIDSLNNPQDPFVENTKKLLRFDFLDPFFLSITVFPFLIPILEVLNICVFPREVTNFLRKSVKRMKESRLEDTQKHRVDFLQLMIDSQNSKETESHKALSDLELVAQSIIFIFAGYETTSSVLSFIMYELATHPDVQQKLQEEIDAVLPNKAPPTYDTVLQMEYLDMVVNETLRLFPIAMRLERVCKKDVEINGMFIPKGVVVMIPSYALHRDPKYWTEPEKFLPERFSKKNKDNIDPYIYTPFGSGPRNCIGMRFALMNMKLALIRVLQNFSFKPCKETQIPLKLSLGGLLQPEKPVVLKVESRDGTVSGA
T2 sequence (P33261 whole entry): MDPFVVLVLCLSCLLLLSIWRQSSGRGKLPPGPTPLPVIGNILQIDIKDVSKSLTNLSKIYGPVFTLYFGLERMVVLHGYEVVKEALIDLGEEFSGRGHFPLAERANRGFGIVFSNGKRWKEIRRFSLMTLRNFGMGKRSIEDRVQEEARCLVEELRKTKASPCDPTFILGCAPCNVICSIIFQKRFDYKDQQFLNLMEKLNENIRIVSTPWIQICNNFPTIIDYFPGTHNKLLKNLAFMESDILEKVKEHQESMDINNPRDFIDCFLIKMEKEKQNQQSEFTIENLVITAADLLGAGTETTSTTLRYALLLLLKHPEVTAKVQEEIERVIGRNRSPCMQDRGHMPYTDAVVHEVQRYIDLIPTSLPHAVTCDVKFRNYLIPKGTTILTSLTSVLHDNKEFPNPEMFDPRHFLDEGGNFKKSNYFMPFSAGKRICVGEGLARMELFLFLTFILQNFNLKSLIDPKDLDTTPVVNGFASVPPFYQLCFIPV

Regarding “cis(±)-4-{4-[4-{4-[2-(pyridin-2-yl)-2-(1H-1,2,4-triazol-1-ylmethyl)-1,3-dioxolan-4-yl-methoxy]phenyl}-1-piperazinyl]-phenyl}-2-(1-(R,S)methylpropyl)-2,4-dihydro-3H-1,2,4-triazol-3-one [Example 9]”, the figures for the “Surviving mice 21 days after infection” value in the data set on Candida albicans [1] (setting [3]) and in the data set with Candida albicans [1] (setting [4]) were 0% and 10%, respectively. Moreover, the figures for the “Average survival (days) ± S.D.” value with Candida albicans [1] (setting [3]) and in the data set on Candida albicans [1] (setting [4]) were 6.6 ± 0.8 days and 9.1 ± 1.5 days, respectively. For the same substance, the “IC50 (minimum concentration to bring about 50% inhibition)” value with Candida glabrata was 1 mg/mL; in the data set with Candida albicans [2] (Candida albicans strain 21), 39 mg/mL; in the data set on Candida albicans [2] (Candida albicans strain gen-45), “≦0.03 mg/ml”; with Candida parapsilosis, “≦0.03 mg/ml”; with Aspergillus fumigatus (Aspergillus fumigatus strain 34) it was 0.25; in the data set with Aspergillus fumigatus (Aspergillus fumigatus strain 99-2135), 0.25. Moreover, the IC50 against CYP2D6 was more than 100 µM; at CYP2C19 it was 40.7 ± 12.7 µM; against CYP2C9 it was 54.1 ± 5.2 µM; against CYP1A2 it was more than 100 µM; at CYP3A4, 0.22 ± 0.05 µM.

Values taken from patent publication US7427620B2, “Azole derivative useful as antifungal agents with reduced interaction with metabolic cytochromes” (Italfarmaco SPA, priority 2003, dated 2008).
